According to patent US6362166B1, “Antipicornaviral compounds and methods for their use and preparation” (Agouron Pharmaceuticals, Inc., priority 1996, dated 2002):
Like-named read-outs stand apart in the source and are kept apart here.

Columns and labels:
[1] = molecular target: T1, Recombinant Rhinovirus 3C protease (RVP) serotype-14 (Human rhinovirus 14, UniProt P03303); test: Inhibition of Rhinovirus Protease (fluorescence resonance energy transfer assay), serotype 14; format: biochemical, human rhinovirus (HRV); details: RVP serotype-14; for Ki: 10 minute preincubation, substrate start, read-out: INHIB (Ki); for kobs/I: progress curves in enzyme start experiments; for INHIB (percent inhibition): 10 minute preincubation with 50 nM RVP
T1 construct: Recombinant Rhinovirus 3C proteases from serotypes 14, 16, 2 or 89; made in house
Experimental: Stock solution (50 mM, in DMSO) of various compounds were prepared; dilutions were in the same solvent. […] Assays contained 2% DMSO, 50 mM tris pH 7.6, 1 mM EDTA, a compound at the indicated concentrations, approximately 1 μM substrate, and 50-100 nM protease. […] The kobs/I values were obtained from reactions initiated by addition of enzyme rather than substrate. RVP activity is measured in the fluorescence resonance energy transfer assay. […] In the uncleaved peptide, the EDANS fluorescence was quenched by the proximal DABCYL moeity. When the peptide was cleaved, the quenching was relieved, and activity was measured as an increase in fluorescence signal.
In the above table, all data is RVP serotype-14 unless otherwise noted in parentheses. All strains of human rhinovirus (HRV) were purchased from American Type Culture Collection (ATCC), except for serotype 14, which was produced from the infectious cDNA clone constructed and supplied to us by Dr. Roland Rueckert at the Institute for Molecular Virology, University of Wisconsin, Madison, Wisc. […] The data in the column designated kobs/I was measured from progress curves in enzyme start experiments.

[2] = system: HRV-14; test: Antirhinoviral HI-HeLa Cell Culture Assay (Cell Protection Assay, XTT dye reduction); format: cell-based, human rhinovirus (HRV) serotype-14; details: HI-HeLa cells infected with HRV-14, m.o.i. 0.13; two days; XTT; read-out: EC50
Experimental: In the Cell Protection Assay, the ability of compounds to protect cells against HRV infection was measured by the XTT dye reduction method. This method is described in Weislow, O. S., R. Kiser, D. L. Fine, J. Bader, R. H. Shoemaker, and M. R. Boyd, J. Natl. Cancer Inst. 1989, 81, 577-586, which is incorporated herein by reference.
(§1) HI-HeLa cells were infected with HRV-14 at a multiplicity of infection (m.o.i.) of 0.13 (virus particles/cell) or mock-infected with medium only. Infected or mock-infected cells were resuspended at 8×10^5 cells per mL and incubated with appropriate concentration of compounds of formulas I and II. Two days later, XTT/PMS was added to test plates and the amount of formazan produced was quantified spectrophotometrically at 450/650 nm. […] The therapeutic index (TI) was calculated by dividing the CC50 by the EC50.
(§2) All strains of human rhinovirus (HRV) for use in this assay were purchased from American Type Culture Collection (ATCC), except for HRV serotype-14, which was produced from the infectious cDNA clone, constructed and supplied to us by Dr. Roland Rueckert at the Institue for Molecular Virology, University of Wisconsin, Madison, Wisc. HRV stocks were propagated, and antiviral assays were perforemd in HI-HeLa cells (ATCC). Cells were grwon in Minimal Essential Medium, available from Life Technologies, with 10% fetal bovine serum.
The compounds were tested against control compounds WIN 51711, WIN 52084, and WIN 54954, all obtained from Sterling-Winthrop Pharmaceuticals, and control compound Pirodavir, obtained from Janssen Pharmaceuticals.

[3] = system: HI-HeLa cells; test: Cytotoxicity in mock-infected HI-HeLa cells (antirhinoviral assay, XTT); format: cell-based
Experimental: as §1, §2

[4] = mock-infected HI-HeLa cells, two days, XTT, read-out: CC50

T1 sequence (P03303 1538-1719): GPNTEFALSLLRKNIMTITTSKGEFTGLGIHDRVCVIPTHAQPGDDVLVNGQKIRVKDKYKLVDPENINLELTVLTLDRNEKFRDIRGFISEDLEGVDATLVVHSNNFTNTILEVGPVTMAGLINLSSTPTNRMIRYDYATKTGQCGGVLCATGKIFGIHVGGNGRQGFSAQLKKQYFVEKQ

CCOC(=O)/C=C/[C@H](CCC(N)=O)NC(=O)[C@H](Cc1ccccc1)NC(=O)OCc1ccccc1 [Compound 30, Ethyl-3-(CBZ-L-Phe-L-Gln)-E-Propenoate]
Ki [1]: 373 µM | kobs/I [1]: 430 M⁻¹ s⁻¹ | EC50 [2]: 5.6 µM | CC50 [3]: 100 µM

CC(C)C[C@H](NC(=O)OCc1ccccc1)C(=O)N[C@@H](Cc1ccccc1)C(=O)N[C@H](/C=C/S(C)(=O)=O)CCC(N)=O [Compound 9, Methyl-[2-(CBZ-L-Leu-L-Phe-L-Gln)-E-Vinyl]Sulfone]
INHIB (percent inhibition) ([1]; 1 μM compound): 20(1) percent | kobs/I [1]: 160 M⁻¹ s⁻¹ | EC50 [2]: > 320 µM | CC50 [3]: > 320 µM

CCOC(=O)/C=C/[C@H](COC(=O)NC(=O)CCl)NC(=O)[C@H](Cc1ccccc1)NC(=O)[C@H](CC(C)C)NC(=O)OCc1ccccc1 [Compound 122]
kobs/I [1]: 1,252 M-1 sec-1 | EC50 [2]: 1.78 µM | CC50 [3]: 10 µM

CC(C)C[C@H](NC(=O)OCc1ccccc1)C(=O)N[C@@H](Cc1ccccc1)C(=O)N[C@H](/C=C/C(=O)c1ccco1)CCC(N)=O [Compound 49]
kobs/I [1]: 460,000 M-1 sec-1 | EC50 [2]: 2.4 µM | CC50 [3]: 19.1 µM

CC(C)C[C@H](NC(=O)OCc1ccccc1)C(=O)N[C@@H](Cc1ccccc1)C(=O)N[C@H](/C=C/C(=O)N1CCc2cc(Cl)ccc21)CCC(N)=O [Compound 92]
kobs/I [1]: 445 M⁻¹ s⁻¹ | EC50 [2]: 5.6 µM | CC50 [3, 4]: 56 µM

CCOC(=O)/C=C/[C@H](CCC(N)=O)NC(=O)[C@H](Cc1ccccc1)NC(=O)[C@@H](NC(=O)SC1CCCC1)C(C)(C)SC [Compound 178, Ethyl-3-[Cyclopentylthiocarbonyl-L-(S-Me-Pen)-L-Phe-L-Gln]-E-Propenoate]
kobs/I [1]: 286,300 M-1 sec-1 | EC50 [2]: 0.1 µM | CC50 [3]: > 100 µM

CCOC(=O)/C=C/[C@H](CCC(N)=O)NC(=O)[C@H](Cc1ccc(Cl)cc1)NC(=O)c1cc2c(OC)cccc2[nH]1 [Compound 26, Ethyl-3-[N-(4-Methoxyindole-2-Carbonyl)-L-(4-Cl-Phe)-L-Gln]-E-Propenoate]
INHIB (percent inhibition) ([1]; 0.1 μM compound): 52(0.1) percent | kobs/I [1]: 5,400 M-1 sec-1 | EC50 [2]: 2 µM | CC50 [3]: 44.7 µM

CCOC(=O)/C=C/[C@H](CCC(N)=O)NC(=O)CNC(=O)[C@H](CC(C)C)NC(=O)OCc1ccccc1 [Compound 99]
INHIB (percent inhibition) [1]: 10 (50) percent | EC50 [2]: 141 µM | CC50 [3]: > 320 µM

CC(C)C[C@H](NC(=O)OCc1ccccc1)C(=O)N[C@@H](Cc1ccccc1)C(=O)N[C@H](/C=C/C(=O)N1CCCO1)CCC(N)=O [Compound 79]
kobs/I [1]: 13,900 M-1 sec-1 | EC50 [2]: 45 µM | CC50 [3, 4]: > 320 µM

CC(C)C[C@H](NC(=O)OCc1ccccc1)C(=O)N[C@@H](Cc1ccccc1)C(=O)N[C@H](/C=C/C(=O)N1CCc2cccc(S(C)(=O)=O)c21)CCC(N)=O [Compound 95]
kobs/I [1]: <1000 M⁻¹ s⁻¹ | EC50 [2]: > 320 µM | CC50 [3, 4]: > 320 µM

CC(C)CC(NC(=O)OCc1ccccc1)C(=O)NC(Cc1ccccc1)C(=O)NC(C=CC(=O)N1CCC(O)C1)CCC(N)=O (centres unmarked) [Compound 39]
kobs/I [1]: 1,200 M-1 sec-1 | EC50 [2]: > 320 µM | CC50 [3]: > 320 µM

CCOC(=O)/C=C/[C@H](CCC(N)=O)NC(=O)[C@H](Cc1ccc(OP(=O)(O)O)cc1)NC(=O)[C@H](CC(C)C)NC(=O)OCc1ccccc1 [Compound 105]
kobs/I [1]: 1,200 M-1 sec-1 | EC50 [2]: 14 µM | CC50 [3, 4]: > 320 µM

CCOC(=O)/C=C/[C@H](CCC(N)=O)NC(=O)[C@H](Cc1ccccc1)NS(=O)(=O)c1ccccc1 [Compound 34, Ethyl-3-[N-(Phenylsulfonyl)-L-Phe-L-Gln]-E-Propenoate]
INHIB (percent inhibition) ([1]; 10 μM compound): 10(10) percent | kobs/I [1]: 34 M⁻¹ s⁻¹ | EC50 [2]: 100 µM | CC50 [3, 4]: > 100 µM

CC(C)C[C@H](NC(=O)OCc1ccccc1)C(=O)N[C@@H](Cc1ccccc1)C(=O)N[C@H](/C=C/C(=O)N1CCc2ccc(S(C)(=O)=O)cc21)CCC(N)=O [Compound 97]
kobs/I [1]: 12,900 M-1 sec-1 | EC50 [2]: > 320 µM | CC50 [3, 4]: > 320 µM

CC(C)C[C@H](NC(=O)OCc1ccccc1)C(=O)N[C@@H](Cc1ccccc1)C(=O)N[C@H](/C=C/C(=O)OCC1CCCC1)CCC(N)=O [Compound 19, Cyclopentylmethyl-3-(CBZ-L-Leu-L-Phe-L-Gln)-E-Propenoate]
Ki [1]: 35 µM | kobs/I [1]: 7,900 M-1 sec-1 | EC50 [2]: 1.35 µM | CC50 [3]: > 100 µM

CC(C)C[C@H](NC(=O)OCc1ccccc1)C(=O)N[C@@H](Cc1ccccc1)C(=O)N[C@H](/C=C/C(=O)Nc1ccccc1)CCC(N)=O [Compound 59]
Ki [1]: 2 µM | kobs/I [1]: 200 M⁻¹ s⁻¹ | EC50 [2]: > 320 µM | CC50 [3, 4]: > 320 µM

CCOC(=O)/C(C)=C/[C@H](CCC(N)=O)NC(=O)[C@H](Cc1ccc(C)cc1)NC(=O)[C@@H](NC(=O)SC1CCCC1)C(C)(C)C [Compound 175, Ethyl-2-Methyl-3-[Cyclopentylthiocarbonyl-L-α-(t-Butyl-Gly)-L-(4-Me-Phe)-L-Gln]-E-Propenoate]
kobs/I [1]: 124,000 M-1 sec-1 | EC50 [2]: 0.18 µM | CC50 [3, 4]: > 100 µM

CCOC(=O)/C(C)=C/[C@H](CCC(N)=O)NC(=O)[C@H](Cc1ccccc1)NC(=O)[C@@H](NC(=O)SCC)C(C)(C)C [Compound 168, Ethyl-2-Methyl-3-[Ethylthiocarbonyl-L-α-(t-Butyl-Gly)-L-Phe-L-Gln]-E-Propenoate]
kobs/I [1]: 37,800 M-1 sec-1 | EC50 [2]: 0.32 µM | CC50 [3]: > 100 µM

CC(C)C[C@H](NC(=O)OCc1ccccc1)C(=O)N[C@@H](Cc1ccccc1)C(=O)N[C@H](/C=C/S(=O)(=O)c1ccccc1)CCC(N)=O [Compound 10, Phenyl-[2-(CBZ-L-Leu-L-Phe-L-Gln)-E-Vinyl]Sulfone]
INHIB (percent inhibition) ([1]; 5 μM compound): 55(5) percent | kobs/I [1]: 270 M⁻¹ s⁻¹ | EC50 [2]: 200 µM | CC50 [3]: > 320 µM

CCOC(=O)/C=C/[C@H](CCC(N)=O)NC(=O)[C@H](CC)NC(=O)[C@H](CC(C)C)NC(=O)OCc1ccccc1 [Compound 108]
kobs/I [1]: 4,694 M-1 sec-1 | EC50 [2]: 6 µM | CC50 [3]: > 320 µM

CC(C)C[C@H](NC(=O)OCc1ccccc1)C(=O)N[C@@H](Cc1ccccc1)C(=O)N[C@H](/C=C/C(=O)OC1CCCC1)CCC(N)=O [Compound 18, Cyclopentyl-3-(CBZ-L-Leu-L-Phe-L-Gln)-E-Propenoate]
Ki [1]: 15.3 µM | kobs/I [1]: 7,700 M-1 sec-1 | EC50 [2]: 0.64 µM | CC50 [3]: > 100 µM

CCN(CC)c1ccc(C(=O)/C=C/[C@H](CCC(N)=O)NC(=O)[C@H](Cc2ccccc2)NC(=O)[C@H](CC(C)C)NC(=O)OCc2ccccc2)cc1 [Compound 43]
kobs/I [1]: 4,500 M-1 sec-1 | EC50 [2]: 10 µM | CC50 [3]: 18 µM

CC(C)C[C@H](NC(=O)OCc1ccccc1)C(=O)N[C@@H](Cc1ccccc1)C(=O)N[C@H](/C=C/C=O)CCC(N)=O [Compound 81]
kobs/I [1]: 124,000 M-1 sec-1 | EC50 [2]: 8 µM | CC50 [3, 4]: 112 µM

CCOC(=O)/C=C/[C@H](CCC(N)=O)NC(=O)[C@H](Cc1ccc(F)cc1)NC(=O)[C@@H](NC(=O)SC1CCCC1)C(C)C [Compound 184]
kobs/I [1]: 59,900 M-1 sec-1 | EC50 [2]: 0.19 µM | CC50 [3]: > 100 µM

CSc1cccc2c1N(C(=O)/C=C/[C@H](CCC(N)=O)NC(=O)[C@H](Cc1ccccc1)NC(=O)[C@H](CC(C)C)NC(=O)OCc1ccccc1)CC2 [Compound 96]
kobs/I [1]: 300 M⁻¹ s⁻¹ | EC50 [2]: 19.1 µM | CC50 [3, 4]: 100 µM
